# Experimental data published in patent publication US7880010B2, “Crystalline forms of a dimethylphenyl compound” (Theravance, Inc., priority 2006, dated 2011).
# Legend:
# [1] = Differential scanning calorimetry, thermal stability; assay type: physicochemical; details: DSC, FIG. 5
# Protocol: Differential scanning calorimetry (DSC) was performed using a TA Instruments Model Q-100 module with a Thermal Analyst controller. Data were collected and analyzed using TA Instruments Thermal Solutions software. A sample of about 1 mg was accurately weighed into an aluminum pan with lid. The sample was evaluated using a linear heating ramp of 5° C./min from ambient temperature to approximately 300° C. The DSC cell was purged with dry nitrogen during use. Representative DSC traces for samples of Form I, Form II and Form III of crystalline biphenyl-2-ylcarbamic acid 1-[2-(4-{[(R)-2-(3-formylamino-4-hydroxyphenyl)-2-hydroxyethylamino]methyl}-2,5-dimethylphenylcarbamoyl)ethyl]piperidin-4-yl ester are shown in FIGS. 4, 5 and 6, respectively.
# [2] = Dynamic moisture sorption (DMS) assessment; assay type: physicochemical
# Protocol: A dynamic moisture sorption (DMS) assessment (also known as a moisture sorption-desorption profile) was performed for a hand ground samples of Form I, Form II and Form III of crystalline biphenyl-2-ylcarbamic acid 1-[2-(4-{[(R)-2-(3-formylamino-4-hydroxyphenyl)-2-hydroxyethylamino]methyl}-2,5-dimethylphenylcarbamoyl)-ethyl]piperidin-4-yl ester using a VTI atmospheric microbalance, SGA-100 system (VTI Corp., Hialeah, Fla. 33016). A sample size of approximately 10 mg was used and the humidity was set at the ambient value at the start of the analysis. A typical DMS analysis consisted of three scans: ambient to 2% relative humidity (RH), 2% RH to 90% RH, 90% RH to 5% RH at a scan rate of 5% RH/step. The mass was measured every two minutes and the RH was changed to the next value (±5% RH) when the mass of the sample was stable to within 0.01% for 5 consecutive points. Representative DMS traces for Form I, Form II and Form III are shown in FIGS. 10, 11 and 12, respectively.
# bronchoconstriction = assay: Einthoven assay, duration of bronchoprotection; details: guinea pigs, 10 μg/mL
# Protocol: The magnitude of bronchoprotection at different time-points after inhalation of the test compound was used to estimate the pharmacodynamic half-life (PD T1/2). PD T1/2 was determined using a non-linear regression fit using a one-phase exponential decay equation (GraphPad Prism, Version 4.00): Y=Span*exp(−K*X)+Plateau; Starts at Span+Plateau and decays to Plateau with a rate constant K. The PD T1/2=0.69/K. Plateau was constrained to 0.
SMILES,thermal stability [1],"hygroscopicity ([2]; DMS, 2% RH to 90% RH, reversible sorption/desorption profile) [%]","weight gain ([2]; humidity range of 40% RH to 75% RH, DMS trace FIG. 11)",weight gain ([2]; humidity range of 40% relative humidity to 75% relative humidity),"deliquescence ([2]; moisture sorption/desorption, exposure to atmospheric moisture)",duration of significant bronchoprotection (bronchoconstriction)
"Cc1cc(NC(=O)CCN2CCC(OC(=O)Nc3ccccc3-c3ccccc3)CC2)c(C)cc1CNC[C@H](O)c1ccc(O)c(NC=O)c1 [Form II, Biphenyl-2-ylcarbamic acid 1-[2-(4-{[(R)-2-(3-Formylamino-4-hydroxyphenyl)-2-hydroxyethylamino]methyl}-2,5-dimethylphenylcarbamoyl)ethyl]piperidin-4-yl Ester]",excellent thermal stability,< 5,about 0.3 weight %,less than 0.5%,not deliquescent,
C[N+]1(C)[C@@H]2C[C@@H](OC(=O)C(O)(c3cccs3)c3cccs3)C[C@H]1[C@@H]1O[C@@H]12 [tiotropium],,,,,,greater than 72 hours
